Test results from the supplement of paper PMC10307832.

Tests used:
Assay in all cases: relative viability (nuclei count vs DMSO), 5 days (fraction); higher = more cells survive
[1] = compound: C1CC(C1)(C(=O)O)C(=O)O.[NH2-].[NH2-].[Pt+2] [Carboplatin] + CCNC(=O)c1noc(-c2cc(C(C)C)c(O)cc2O)c1-c1ccc(CN2CCOCC2)cc1 [Luminespib] (partner 0.01 µM)
In short: (§1)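 Relative viability is defined as nuclei in treated wells over nuclei in vehicle wells. Duplicate plates were run and medians reported. Lung cancer cell lines in 1536-well plates were dosed by pin tool one day after seeding, with one drug or with a fixed anchor-drug dose plus five library-drug doses (not always all listed) in √10 steps, and nuclei were counted after 5 days.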

[2] = compound: C1CC(C1)(C(=O)O)C(=O)O.[NH2-].[NH2-].[Pt+2] [Carboplatin] + Nc1nc2[nH]cc(CCc3ccc(C(=O)N[C@@H](CCC(=O)O)C(=O)O)cc3)c2c(=O)[nH]1 [Pemetrexed] (partner 0.2 µM)
In short: as §1

[3] = compound: CC[C@H](C)N1C=C(C2=C(C=C(C=C21)C3=CN=C(C=C3)N4CCNCC4)C(=O)NCC5=C(C=C(NC5=O)C)C)C [GSK126] + COc1cc2c(Oc3ccc(NC(=O)C4(C(=O)Nc5ccc(F)cc5)CC4)cc3F)ccnc2cc1OCCCN1CCOCC1 [Foretinib] (partner 0.25 µM)
In short: as §1

[4] = compound: NS(=O)(=O)OC[C@@H]1C[C@@H](n2ccc3c(N[C@H]4CCc5ccccc54)ncnc32)C[C@@H]1O [MLN4924] + COc1cccc2cc(-c3nc([C@H]4CC[C@H](C(=O)O)CC4)n4ncnc(N)c34)[nH]c12 [OSI-027] (partner 0.5 µM)
In short: as §1

NCI-H441
relative viability ([1]; first compound 0.08 µM): 0.387
relative viability ([1]; first compound 0.253 µM): 0.28
relative viability ([1]; first compound 0.8 µM): 0.266
relative viability ([1]; first compound 2.53 µM): 0.295
relative viability ([1]; first compound 8 µM): 0.234
relative viability ([2]; first compound 0.08 µM): 0.289
relative viability ([2]; first compound 0.253 µM): 0.258
relative viability ([2]; first compound 0.8 µM): 0.271
relative viability ([2]; first compound 2.53 µM): 0.243
relative viability ([2]; first compound 8 µM): 0.241
relative viability ([3]; first compound 0.08 µM): 0.889
relative viability ([3]; first compound 0.253 µM): 0.866
relative viability ([3]; first compound 0.8 µM): 0.975
relative viability ([3]; first compound 2.53 µM): 0.926
relative viability ([3]; first compound 8 µM): 0.715
relative viability ([4]; first compound 0.04 µM): 0.596
relative viability ([4]; first compound 0.1265 µM): 0.613
relative viability ([4]; first compound 0.4 µM): 0.258
relative viability ([4]; first compound 1.265 µM): 0.139
relative viability ([4]; first compound 4 µM): 0.193

NCI-H1395
relative viability ([1]; first compound 0.08 µM): 0.864
relative viability ([1]; first compound 0.253 µM): 0.543
relative viability ([1]; first compound 0.8 µM): 0.731
relative viability ([1]; first compound 2.53 µM): 0.458
relative viability ([1]; first compound 8 µM): 0.331
relative viability ([2]; first compound 0.08 µM): 1.02
relative viability ([2]; first compound 0.253 µM): 0.983
relative viability ([2]; first compound 0.8 µM): 0.814
relative viability ([2]; first compound 2.53 µM): 0.61
relative viability ([2]; first compound 8 µM): 0.534
relative viability ([3]; first compound 0.08 µM): 1.17
relative viability ([3]; first compound 0.253 µM): 0.878
relative viability ([3]; first compound 0.8 µM): 1.04
relative viability ([3]; first compound 2.53 µM): 1.07
relative viability ([3]; first compound 8 µM): 0.785
relative viability ([4]; first compound 0.04 µM): 0.641
relative viability ([4]; first compound 0.1265 µM): 0.606
relative viability ([4]; first compound 0.4 µM): 0.602
relative viability ([4]; first compound 1.265 µM): 0.349
relative viability ([4]; first compound 4 µM): 0.39

NCI-H661
relative viability ([1]; first compound 0.08 µM): 0.892
relative viability ([1]; first compound 0.253 µM): 0.901
relative viability ([1]; first compound 0.8 µM): 0.854
relative viability ([1]; first compound 2.53 µM): 0.874
relative viability ([1]; first compound 8 µM): 0.744
relative viability ([2]; first compound 0.08 µM): 0.942
relative viability ([2]; first compound 0.253 µM): 0.858
relative viability ([2]; first compound 0.8 µM): 0.903
relative viability ([2]; first compound 2.53 µM): 0.916
relative viability ([2]; first compound 8 µM): 0.839
relative viability ([3]; first compound 0.08 µM): 1.09
relative viability ([3]; first compound 0.253 µM): 1.05
relative viability ([3]; first compound 0.8 µM): 0.997
relative viability ([3]; first compound 2.53 µM): 1.04
relative viability ([3]; first compound 8 µM): 1.09
relative viability ([4]; first compound 0.04 µM): 0.751
relative viability ([4]; first compound 0.1265 µM): 0.876
relative viability ([4]; first compound 0.4 µM): 0.689
relative viability ([4]; first compound 1.265 µM): 0.319
relative viability ([4]; first compound 4 µM): 0.349

NCI-H1734
relative viability ([1]; first compound 0.08 µM): 0.21
relative viability ([1]; first compound 0.253 µM): 0.236
relative viability ([1]; first compound 0.8 µM): 0.193
relative viability ([1]; first compound 2.53 µM): 0.188
relative viability ([1]; first compound 8 µM): 0.174
relative viability ([2]; first compound 0.08 µM): 0.423
relative viability ([2]; first compound 0.253 µM): 0.422
relative viability ([2]; first compound 0.8 µM): 0.495
relative viability ([2]; first compound 2.53 µM): 0.408
relative viability ([2]; first compound 8 µM): 0.419
relative viability ([3]; first compound 0.08 µM): 0.931
relative viability ([3]; first compound 0.253 µM): 0.868
relative viability ([3]; first compound 0.8 µM): 0.771
relative viability ([3]; first compound 2.53 µM): 0.817
relative viability ([3]; first compound 8 µM): 0.904
relative viability ([4]; first compound 0.04 µM): 0.498
relative viability ([4]; first compound 0.1265 µM): 0.832
relative viability ([4]; first compound 0.4 µM): 0.304
relative viability ([4]; first compound 1.265 µM): 0.124
relative viability ([4]; first compound 4 µM): 0.142

EMC-BAC-2
relative viability ([1]; first compound 0.08 µM): 1.22
relative viability ([1]; first compound 0.253 µM): 1.15
relative viability ([1]; first compound 0.8 µM): 1.15
relative viability ([1]; first compound 2.53 µM): 1
relative viability ([1]; first compound 8 µM): 0.751
relative viability ([2]; first compound 0.08 µM): 0.426
relative viability ([2]; first compound 0.253 µM): 0.42
relative viability ([2]; first compound 0.8 µM): 0.435
relative viability ([2]; first compound 2.53 µM): 0.418
relative viability ([2]; first compound 8 µM): 0.414
relative viability ([3]; first compound 0.08 µM): 1.07
relative viability ([3]; first compound 0.253 µM): 0.964
relative viability ([3]; first compound 0.8 µM): 0.706
relative viability ([3]; first compound 2.53 µM): 0.98
relative viability ([3]; first compound 8 µM): 1.03
relative viability ([4]; first compound 0.04 µM): 0.383
relative viability ([4]; first compound 0.1265 µM): 0.36
relative viability ([4]; first compound 0.4 µM): 0.197
relative viability ([4]; first compound 1.265 µM): 0.194
relative viability ([4]; first compound 4 µM): 0.243

EKVX
relative viability ([1]; first compound 0.08 µM): 0.903
relative viability ([1]; first compound 0.253 µM): 0.864
relative viability ([1]; first compound 2.53 µM): 0.695
relative viability ([1]; first compound 8 µM): 0.727
relative viability ([2]; first compound 0.08 µM): 0.38
relative viability ([2]; first compound 0.253 µM): 0.342
relative viability ([2]; first compound 0.8 µM): 0.402
relative viability ([2]; first compound 2.53 µM): 0.296
relative viability ([2]; first compound 8 µM): 0.329
relative viability ([3]; first compound 0.08 µM): 0.755
relative viability ([3]; first compound 0.253 µM): 0.881
relative viability ([3]; first compound 0.8 µM): 0.782
relative viability ([3]; first compound 2.53 µM): 0.876
relative viability ([3]; first compound 8 µM): 0.903
relative viability ([4]; first compound 0.04 µM): 0.71
relative viability ([4]; first compound 0.1265 µM): 0.712
relative viability ([4]; first compound 0.4 µM): 0.622
relative viability ([4]; first compound 1.265 µM): 0.214
relative viability ([4]; first compound 4 µM): 0.175

NCI-H596
relative viability ([1]; first compound 0.08 µM): 1.02
relative viability ([1]; first compound 0.253 µM): 1
relative viability ([1]; first compound 0.8 µM): 0.4
relative viability ([1]; first compound 2.53 µM): 0.342
relative viability ([1]; first compound 8 µM): 0.746
relative viability ([2]; first compound 0.08 µM): 0.533
relative viability ([2]; first compound 0.253 µM): 0.473
relative viability ([2]; first compound 0.8 µM): 0.548
relative viability ([2]; first compound 2.53 µM): 0.464
relative viability ([2]; first compound 8 µM): 0.475
relative viability ([3]; first compound 0.08 µM): 0.854
relative viability ([3]; first compound 0.253 µM): 0.497
relative viability ([3]; first compound 0.8 µM): 1.08
relative viability ([3]; first compound 2.53 µM): 0.975
relative viability ([3]; first compound 8 µM): 0.809
relative viability ([4]; first compound 0.04 µM): 0.669
relative viability ([4]; first compound 0.1265 µM): 0.87
relative viability ([4]; first compound 1.265 µM): 0.765
relative viability ([4]; first compound 4 µM): 0.596

NCI-H358
relative viability ([1]; first compound 0.08 µM): 0.359
relative viability ([1]; first compound 0.253 µM): 0.77
relative viability ([1]; first compound 0.8 µM): 0.259
relative viability ([1]; first compound 2.53 µM): 0.409
relative viability ([1]; first compound 8 µM): 0.222
relative viability ([2]; first compound 0.08 µM): 0.179
relative viability ([2]; first compound 0.253 µM): 0.21
relative viability ([2]; first compound 0.8 µM): 0.188
relative viability ([2]; first compound 2.53 µM): 0.16
relative viability ([2]; first compound 8 µM): 0.174
relative viability ([3]; first compound 0.08 µM): 0.742
relative viability ([3]; first compound 0.253 µM): 0.629
relative viability ([3]; first compound 0.8 µM): 0.66
relative viability ([3]; first compound 2.53 µM): 0.859
relative viability ([3]; first compound 8 µM): 0.786
relative viability ([4]; first compound 0.04 µM): 0.968
relative viability ([4]; first compound 0.1265 µM): 0.649
relative viability ([4]; first compound 0.4 µM): 0.492
relative viability ([4]; first compound 1.265 µM): 0.0759
relative viability ([4]; first compound 4 µM): 0.118
